These results are taken from publication PMC11839852, “Preclinical comparison of (radio)lanthanides using mass spectrometry and nuclear imaging techniques: biodistribution of lanthanide-based tumor-targeting agents and lanthanides in ionic form” (European Journal of Nuclear Medicine and Molecular Imaging, 2024).

Where two headings read alike, the source gives them in different places. Marks after values point to notes of the source that are not given here. Where a SMILES comes first, the peptide text is derived from it. Bridges are numbered along the chain shown (N, C = ends). [ ]: non-standard residue; d: D form. The star is where a group is joined. DOTA = O=C(O)CN1CCN(CC(=O)O)CCN(CC(=O)*)CCN(CC(=O)O)CC1; dPhe(4-NHCONH2) = NC(=O)Nc1ccc(C[C@@H](N)C(=O)O)cc1; Phe(4-Cl) = N[C@@H](Cc1ccc(Cl)cc1)C(=O)O Bounds are passed on as bounds.

Series [1] is described as follows: Biodistribution of Ln-DOTATATE and Ln-DOTA-LM3 (multiplexed ICP-MS). Conditions: female, CD1 nude, mouse, intravenous, 0.5 nmol, AR42J tumor-bearing mice; for tissue uptake at 1 h: 1 h p.i.; for tissue uptake at 24 h: 24 h p.i.
Series [2] has as its system non-tumor-bearing immunocompetent FVB mice. Kind of series: Biodistribution of Ln-DTPA complexes (multiplexed ICP-MS). The settings on record: 1 h p.i.
In series [3] the test system is AR42J, PC-3 PIP and KB tumor cells. Kind of series: In vitro cell uptake of Ln-DTPA complexes. It counts as cell-based. The settings on record: all tumor cell lines, 1 h and 4 h incubation. As to the method: A mixture of equal molar amounts of the lanthanide chloride salts (100 nM stock solutions of ^natLuCl3, ^natTbCl3, ^natGdCl3, and ^natEuCl3, diluted in saline with an adjusted pH value to 3.5‒4.0) was prepared to obtain a final concentration of 10 pmol/mL (2.5 pmol/mL per lanthanide salt) and tested with AR42J, PC-3 PIP and KB tumor cells according to the same protocol as described for the Ln-labeled biomolecules (Supplementary Material). Analogous in vitro cell uptake studies were also performed with lanthanide metal complexes of diethylenetriaminepentaacetic acid (DTPA, Sigma Aldrich Chemie, Steinheim, Germany) to obtain a final concentration of 10 pmol/mL (2.5 pmol/mL per lanthanide complex) (Supplementary Material).
Methods: The same experimental setting as described for Ln-labeled biomolecules was applied to perform uptake and internalization studies with the lanthanide DTPA complexes (Ln-DTPA; Ln = ^natLu, ^natTb, ^natGd and ^natEu). The lanthanides were dissolved in 0.05 M hydrochloric acid and further diluted in a 1:5 (v/v) mixture of sodium acetate (0.5 M) and hydrochloric acid (0.05 M), pH ~4.5. A 10-fold molar excess of DTPA (5 mM, aq.) was added to each lanthanide dilution and the reaction mixtures were incubated for 10 min at 95 °C. The complexed lanthanides were further diluted in saline with an adjusted pH value to 3.5-4.0 for in vitro experiments. The applied solution was a mixture of the four Ln-DTPA complexes at a final concentration of 0.4 µM. Of these mixtures, 25 μL were added to the well with the corresponding tumor cells. The tumor cells were incubated for 1 h and 4 h, respectively, at 37 °C and 5% CO2. After incubation, the tumor cells were treated as described for the Ln-labeled biomolecules and processed for the measurement with ICP-MS.

Series [4] deals with PC-3 PIP/flu tumor-bearing mice. Conditions: Ln-PSMA-617; for Tissue uptake: Blood / Tissue uptake: Bone / Tissue uptake: Heart / Tissue uptake: Intestines / Tissue uptake: Kidneys / Tissue uptake: Liver / Tissue uptake: Lung / Tissue uptake: Muscle / Tissue uptake: Salivary glands / Tissue uptake: Spleen / Tissue uptake: Stomach: PC-3 PIP/flu tumor-bearing mice; for Tissue uptake: PC-3 flu tumor: PSMA-negative xenograft; for Tissue uptake: PC-3 PIP tumor: PSMA-positive xenograft; for PC-3 PIP tumor-to-background organ ratios: Tumor-to-blood / PC-3 PIP tumor-to-background organ ratios: Tumor-to-liver: estimated ratios (organ <0.5% ID/g).

The mark [5] stands for this setting: AR42J tumor, Tissue uptake: AR42J tumor.
Setting [6] is: intestines, Tissue uptake: Intestines.
The mark [7] stands for this setting: kidneys, Tissue uptake: Kidneys.
Where [8] appears, read: pancreas, Tissue uptake: Pancreas.
[9] abbreviates: salivary glands, Tissue uptake: Salivary glands.

As for `C[C@@H](O)[C@@H]1NC(=O)[C@H](CCCCN)NC(=O)[C@@H](Cc2ccc(NC(N)=O)cc2)NC(=O)[C@H](Cc2ccc(O)cc2)NC(=O)[C@H](NC(=O)[C@H](Cc2ccc(Cl)cc2)NC(=O)CN2CCN(CC(=O)O)CCN(CC(=O)O)CCN(CC(=O)O)CC2)CSSC[C@@H](C(=O)N[C@H](Cc2ccc(O)cc2)C(N)=O)NC1=O` [[^175Lu]Lu-DOTA-LM3] ({DOTA}-[Phe(4-Cl)][dC]Y[dPhe(4-NHCONH2)]KTC[dY]-NH2; disulfide 2-7 (inferred); C-terminus assumed), the tissue uptake at 1 h is 4.5 ± 0.2 %ID/g in series [1] (setting [5]); 0.51 ± 0.1 %ID/g in series [1] (blood, Tissue uptake: Blood); less than 0.5 %ID/g in series [1] (bone, Tissue uptake: Bone); less than 0.5 %ID/g in series [1] (brain, Tissue uptake: Brain); less than 0.5 %ID/g in series [1] (heart, Tissue uptake: Heart); 0.6 ± 0.24 %ID/g in series [1] (setting [6]). For the same molecule, the tissue uptake at 1 h in series [1] (setting [7]) was 11 ± 1 %ID/g; in series [1] (muscle, Tissue uptake: Muscle), less than 0.5 %ID/g; in series [1] (setting [8]) it was 1.1 ± 0.1 %ID/g; in series [1] (setting [9]), less than 0.5 %ID/g; in series [1] (spleen, Tissue uptake: Spleen), less than 0.5 %ID/g; in series [1] (stomach, Tissue uptake: Stomach), 1.3 ± 0.2 %ID/g. Moreover, the tissue uptake at 24 h is 2.7 ± 0.3 %ID/g in series [1] (setting [5]); less than 0.5 %ID/g in series [1] (blood, Tissue uptake: Blood); less than 0.5 %ID/g in series [1] (bone, Tissue uptake: Bone); less than 0.5 %ID/g in series [1] (brain, Tissue uptake: Brain); less than 0.5 %ID/g in series [1] (heart, Tissue uptake: Heart); less than 0.5 %ID/g in series [1] (setting [6]). Further, the tissue uptake at 24 h in series [1] (setting [7]) was 4.8 ± 0.5 %ID/g; in series [1] (liver, Tissue uptake: Liver), less than 0.5 %ID/g; in series [1] (lung, Tissue uptake: Lung), less than 0.5 %ID/g; in series [1] (muscle, Tissue uptake: Muscle) it was less than 0.5 %ID/g; in series [1] (setting [8]), 0.51 ± 0.17 %ID/g; in series [1] (setting [9]) it was less than 0.5 %ID/g. Besides, the tissue uptake at 24 h in series [1] (spleen, Tissue uptake: Spleen) was less than 0.5 %ID/g.

In the case of `O=C([O-])CN(CCN(CC(=O)[O-])CC(=O)[O-])CCN(CC(=O)[O-])CC(=O)[O-].[Lu+3]` [[^175Lu]Lu-DTPA], in series [2], the “Tissue uptake: Blood” value is less than 0.5 % ID/g, the “Tissue uptake: Bone” value is recorded as less than 0.5 % ID/g, the “Tissue uptake: Brain” value was less than 0.5 % ID/g and the “Tissue uptake: Heart” value is reported as less than 0.5 % ID/g. For the same molecule, in series [2], the “Tissue uptake: Intestines” value is reported as less than 0.5 % ID/g, the “Tissue uptake: Kidneys” value was 2.3 ± 1.0 % ID/g, the “Tissue uptake: Liver” value is given as less than 0.5 % ID/g and the “Tissue uptake: Lung” value is given as less than 0.5 % ID/g. Also, in series [2], the “Tissue uptake: Muscle” value is listed as less than 0.5 % ID/g, the “Tissue uptake: Pancreas” value is recorded as less than 0.5 % ID/g, the “Tissue uptake: Salivary glands” value was less than 0.5 % ID/g and the “Tissue uptake: Spleen” value is less than 0.5 % ID/g. Further, the “Tissue uptake: Stomach” value in series [2] was less than 0.5 % ID/g. For the same molecule, in series [3], the “Lanthanide detected in cell samples (background levels)” value is reported as less than 20 ppt.

`O=C([O-])CN(CCN(CC(=O)[O-])CC(=O)[O-])CCN(CC(=O)[O-])CC(=O)[O-].[Tb+3]` [[^159Tb]Tb-DTPA]: in series [2], the “Tissue uptake: Blood” value is less than 0.5 % ID/g, the “Tissue uptake: Bone” value was less than 0.5 % ID/g, the “Tissue uptake: Brain” value is on record as less than 0.5 % ID/g and the “Tissue uptake: Heart” value is listed as less than 0.5 % ID/g. Besides, in series [2], the “Tissue uptake: Intestines” value was less than 0.5 % ID/g, the “Tissue uptake: Kidneys” value turned out to be 2.1 ± 1.0 % ID/g, the “Tissue uptake: Liver” value is listed as less than 0.5 % ID/g and the “Tissue uptake: Lung” value is on record as less than 0.5 % ID/g. In addition, in series [2], the “Tissue uptake: Muscle” value was less than 0.5 % ID/g, the “Tissue uptake: Pancreas” value is on record as less than 0.5 % ID/g, the “Tissue uptake: Salivary glands” value is less than 0.5 % ID/g and the “Tissue uptake: Spleen” value is on record as less than 0.5 % ID/g. For the same molecule, the “Tissue uptake: Stomach” value in series [2] was less than 0.5 % ID/g. Moreover, the “Lanthanide detected in cell samples (background levels)” value in series [3] is less than 20 ppt.

`O=C([O-])CN1CCN(CC(=O)[O-])CCN(CC(=O)NCC2CCC(C(=O)NC(Cc3ccc4ccccc4c3)C(=O)NCCCCC(NC(=O)NC(CCC(=O)O)C(=O)O)C(=O)O)CC2)CCN(CC(=O)[O-])CC1.[Tb+3]` (stereo not shown) [[^159Tb]Tb-PSMA-617]: in series [4] (1 h p.i.), the “PC-3 PIP tumor-to-background organ ratios: Tumor-to-kidney” value is on record as 3.3 ± 1.0, the “Tissue uptake: Blood” value is reported as less than 0.5 % ID/g, the “Tissue uptake: Bone” value is given as less than 0.5 % ID/g and the “Tissue uptake: Heart” value was less than 0.5 % ID/g. Further, in series [4] (1 h p.i.), the “Tissue uptake: Intestines” value was less than 0.5 % ID/g, the “Tissue uptake: Kidneys” value turned out to be 8.4 ± 3.5 % ID/g, the “Tissue uptake: Liver” value is recorded as less than 0.5 % ID/g and the “Tissue uptake: Lung” value is less than 0.5 % ID/g. In series [4] (1 h p.i.), the “Tissue uptake: Muscle” value is listed as less than 0.5 % ID/g, the “Tissue uptake: Salivary glands” value is less than 0.5 % ID/g, the “Tissue uptake: Spleen” value is recorded as less than 0.5 % ID/g and the “Tissue uptake: Stomach” value is listed as less than 0.5 % ID/g. In series [4] (1 h p.i.), the “Tissue uptake: PC-3 flu tumor” value is less than 0.5 % ID/g, the “Tissue uptake: PC-3 PIP tumor” value stood at 25 ± 3 % ID/g, the “PC-3 PIP tumor-to-background organ ratios: Tumor-to-blood” value was >51^* and the “PC-3 PIP tumor-to-background organ ratios: Tumor-to-liver” value is >51^*. Further, in series [4] (4 h p.i.), the “PC-3 PIP tumor-to-background organ ratios: Tumor-to-kidney” value was 24 ± 3, the “Tissue uptake: Blood” value is listed as less than 0.5 % ID/g, the “Tissue uptake: Bone” value is recorded as less than 0.5 % ID/g and the “Tissue uptake: Heart” value is on record as less than 0.5 % ID/g. Besides, in series [4] (4 h p.i.), the “Tissue uptake: Intestines” value is less than 0.5 % ID/g, the “Tissue uptake: Kidneys” value turned out to be 1.0 ± 0.2 % ID/g, the “Tissue uptake: Liver” value is on record as less than 0.5 % ID/g and the “Tissue uptake: Lung” value is on record as less than 0.5 % ID/g. Further, in series [4] (4 h p.i.), the “Tissue uptake: Muscle” value is on record as less than 0.5 % ID/g, the “Tissue uptake: Salivary glands” value was less than 0.5 % ID/g, the “Tissue uptake: Spleen” value was less than 0.5 % ID/g and the “Tissue uptake: Stomach” value is less than 0.5 % ID/g. In series [4] (4 h p.i.), the “Tissue uptake: PC-3 flu tumor” value is given as less than 0.5 % ID/g, the “Tissue uptake: PC-3 PIP tumor” value was 23 ± 3 % ID/g, the “PC-3 PIP tumor-to-background organ ratios: Tumor-to-blood” value is recorded as >46^* and the “PC-3 PIP tumor-to-background organ ratios: Tumor-to-liver” value was >46^*.

The tissue uptake is the share of the injected amount in each gram of the tissue.
